Experimental data as given in patent publication US20100056507A1, “PHENYL DERIVATIVES AND THEIR USE AS A MEDICAMENT” (IPSEN PHARMA S.A.S., priority 2006, published 2010).
Counter-ions that a name gives are not always drawn. Like-named read-outs stand apart in the source and are kept apart here.

Target: T1, human CB2 receptors (Homo sapiens, UniProt P34972)
T1 construct: expressed in transfected cells; membranes used
Experiment: Affinity for the human CB2 cannabinoid receptors: inhibition of [3H]-CP55940 binding to transfected CHO-K1 cell membranes
Settings: [3H]-CP55940 1 nM, CHO-K1 membranes expressing human CB2, Cheng-Prusoff correction
Method: The affinity of the compounds of the invention for the human CB2 receptors is determined by measuring the inhibition of the binding of [^3H]-CP55940 to transfected CHO-K1 cell membrane preparations.
The cells are collected with 0.5 mM of EDTA and centrifuged at 500 g for 5 minutes at 4° C. The pellet is re-suspended in phosphate buffered saline medium (PBS) and centrifuged at 500 g for 5 minutes at 4° C. The pellet is re-suspended in a Tris 50 mM buffer medium at pH 7.4 and centrifuged at 500 g for 5 minutes at 4° C. The cells are lysed by sonication and centrifuged at 39,000 g for 10 minutes at 4° C. The pellet is re-suspended in the Tris 50 mM buffer medium at pH 7.4 and centrifuged at 50,000 g for 10 minutes at 4° C. The membranes obtained in this last pellet are stored at −80° C.
Measurement of the competitive inhibition of the binding of the [^3H]-CP55940 to the CB2 receptors is carried out in duplicate using 96-well polypropylene plates. The cell membranes (10 μg of proteins/well) are incubated with the [^3H]-CP55940 (1 nM) for 60 minutes at 25° C. in a Tris-HCl 50 mM buffer medium, pH 7.4, comprising 0.1% bovine serum albumin (BSA), 5 mM of MgCl2, and 50 μg/ml of bacitracin.
The filters are washed with Tris-HCl 50 mM buffer, pH 7.4 at 0-4° C. and the radioactivity present is determined using a counter (Packard Top Count).
The specific binding is obtained by subtracting the non-specific binding (determined in the presence of 0.1 μM of WIN55212-2 from the total binding). The data are analyzed by computer-assisted non-linear regression (MDL). For each test, a Cheng-Prusoff correction is made in order to convert the IC50 to the inhibition constant, Ki.
where [L] is the concentration of the radioligand used in the test and Kd is the radioligand equilibrium disassociation constant.

T1 sequence (P34972 whole entry): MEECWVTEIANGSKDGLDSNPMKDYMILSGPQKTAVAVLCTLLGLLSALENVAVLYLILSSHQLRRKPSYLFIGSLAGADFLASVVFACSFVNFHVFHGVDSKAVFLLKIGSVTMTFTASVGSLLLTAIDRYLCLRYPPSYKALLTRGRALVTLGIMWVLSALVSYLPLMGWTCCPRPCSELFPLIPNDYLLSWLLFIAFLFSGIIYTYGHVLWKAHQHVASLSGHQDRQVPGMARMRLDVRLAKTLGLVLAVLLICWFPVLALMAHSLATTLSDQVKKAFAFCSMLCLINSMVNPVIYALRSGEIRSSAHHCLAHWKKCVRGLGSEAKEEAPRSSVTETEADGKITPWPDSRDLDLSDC

Row | Compound | Ki (read-out: Ki < 0.5 μM) [µM] | Ki (read-out: Ki < 5 μM) [µM]
1 | CC1(C)CCC(C)(C)c2cc(C(=O)OCCc3ccc(NC(=O)C4CCC4)cc3)ccc21 [Example 1, 2-{4-[(cyclobutylcarbonyl)amino]phenyl}ethyl 5,5,8,8-tetramethyl-5,6,7,8-tetrahydronaphthalene-2-carboxylate] | < 0.5 | < 5
2 | CC(C)(C)c1cc(-c2nnc(Cc3ccc(/N=C(/N)c4cccs4)cc3)o2)cc(C(C)(C)C)c1 [Example 2] | < 0.5 | < 5
3 | CC1(C)CCC(C)(C)c2cc(C(=O)OCc3ccc(C(=O)NC4CCC4)cc3)ccc21 [Example 3] | < 0.5 | < 5
4 | O=C(OCCc1ccc(NC(=O)C2CCC2)cc1)c1ccc2c(c1)OCCO2 [Example 4] |  | < 5
5 | CC(C)(C)c1cc(-c2nc(Cc3ccc(/N=C(/N)c4cccs4)cc3)no2)cc(C(C)(C)C)c1 [Example 5] | < 0.5 | < 5
6 | CC1(C)CCC(C)(C)c2cc(-c3nnc(CCc4ccc(/N=C(/N)c5cccs5)cc4)o3)ccc21 [Example 6, N′-(4-{2-[5-(5,5,8,8-tetramethyl-5,6,7,8-tetrahydronaphthalen-2-yl)-1,3,4-oxadiazol-2-yl]ethyl}phenyl)thiophene-2-carboximidamide hydrochloride] |  | < 5
7 | O=C(OCCc1ccc(NC(=O)C2CCC2)cc1)c1ccc2c(c1)C(=O)CCC2 [Example 7] |  | < 5
8 | CN1CCOc2cc(C(=O)OCCc3ccc(NC(=O)C4CCC4)cc3)ccc21 [Example 10] | < 0.5 | < 5
9 | O=C(OCCc1ccc(NC(=O)C2CCC2)cc1)c1ccc2c(c1)CCC2 [Example 11] | < 0.5 | < 5
10 | CC(C)(C)c1cc(-c2nnc(Cc3ccc(NC(=O)C4CCC4)cc3)o2)cc(C(C)(C)C)c1 [Example 12] | < 0.5 | < 5
11 | C=CCNC(=O)Nc1ccc(Cc2nnc(-c3cc(C(C)(C)C)cc(C(C)(C)C)c3)o2)cc1 [Example 13] | < 0.5 | < 5
12 | CCCNC(=O)Nc1ccc(Cc2nnc(-c3cc(C(C)(C)C)cc(C(C)(C)C)c3)o2)cc1 [Example 14] | < 0.5 | < 5
13 | O=C(OCCc1ccc(NC(=O)C2CCC2)cc1)c1ccc2c(c1)CCCC2 [Example 15] | < 0.5 | < 5
14 | CC(C)(C)c1cc(-c2nnc(CCc3ccc(NC(=O)C4CCC4)cc3)o2)cc(C(C)(C)C)c1 [Example 16] | < 0.5 | < 5
15 | C=CCNC(=O)Nc1ccc(CCc2nnc(-c3cc(C(C)(C)C)cc(C(C)(C)C)c3)o2)cc1 [Example 17] | < 0.5 | < 5
16 | CCCNC(=O)Nc1ccc(CCc2nnc(-c3cc(C(C)(C)C)cc(C(C)(C)C)c3)o2)cc1 [Example 18] | < 0.5 | < 5
17 | CC(C)(C)c1cc(-c2nc(Cc3ccc(NC(=O)C4CCC4)cc3)no2)cc(C(C)(C)C)c1 [Example 19] | < 0.5 | < 5
18 | C=CCNC(=O)Nc1ccc(Cc2noc(-c3cc(C(C)(C)C)cc(C(C)(C)C)c3)n2)cc1 [Example 20] | < 0.5 | < 5

Row | Compound | Ki (read-out: Ki < 0.5 μM) [µM] | Ki (read-out: Ki < 5 μM) [µM]
19 | CCCNC(=O)Nc1ccc(Cc2noc(-c3cc(C(C)(C)C)cc(C(C)(C)C)c3)n2)cc1 [Example 21] | < 0.5 | < 5
20 | CC(C)(C)c1cc(-c2nnc(CCc3ccc(/N=C(/N)c4cccs4)cc3)o2)cc(C(C)(C)C)c1 [Example 22] | < 0.5 | < 5
21 | CC(C)(C)c1cc(-c2nnc(NCc3ccc(NC(=O)C4CCC4)cc3)o2)cc(C(C)(C)C)c1 [Example 23] |  | < 5
22 | C=CCNC(=O)Nc1ccc(CNc2nnc(-c3cc(C(C)(C)C)cc(C(C)(C)C)c3)o2)cc1 [Example 24] | < 0.5 | < 5
23 | CC1(C)CCC(C)(C)c2cc(-c3nnc(NCc4ccc(NC(=O)C5CCC5)cc4)o3)ccc21 [Example 25] | < 0.5 | < 5
24 | C=CCNC(=O)Nc1ccc(CNc2nnc(-c3ccc4c(c3)C(C)(C)CCC4(C)C)o2)cc1 [Example 26] | < 0.5 | < 5
25 | CC(C)(C)c1cc(-c2nnc(NCc3ccc(/N=C(/N)c4cccs4)cc3)o2)cc(C(C)(C)C)c1 [Example 27] | < 0.5 | < 5
26 | CC1(C)CCC(C)(C)c2cc(-c3nnc(NCc4ccc(/N=C(/N)c5cccs5)cc4)o3)ccc21 [Example 28] |  | < 5
27 | CCCNC(=O)Nc1ccc(CCOC(=O)c2ccc3c(c2)C(C)(C)CCC3(C)C)cc1 [Example 29, 2-(4-{[(propylamino)carbonyl]amino}phenyl)ethyl 5,5,8,8-tetramethyl-5,6,7,8-tetrahydronaphthalene-2-carboxylate] | < 0.5 | < 5
28 | CC1(C)CCC(C)(C)c2cc(-c3nnc(CCc4ccc(NC(=O)C5CCC5)cc4)o3)ccc21 [Example 31] | < 0.5 | < 5
29 | C=CCNC(=O)Nc1ccc(CCc2nnc(-c3ccc4c(c3)C(C)(C)CCC4(C)C)o2)cc1 [Example 32] | < 0.5 | < 5
30 | CCCNC(=O)Nc1ccc(CCc2nnc(-c3ccc4c(c3)C(C)(C)CCC4(C)C)o2)cc1 [Example 33] | < 0.5 | < 5
31 | CC1(C)CCC(C)(C)c2cc(-c3coc(CCc4ccc(NC(=O)C5CCC5)cc4)n3)ccc21 [Example 39, N-(4-{2-[4-(5,5,8,8-tetramethyl-5,6,7,8-tetrahydronaphthalen-2-yl)-1,3-oxazol-2-yl]ethyl}phenyl)cyclobutanecarboxamide] | < 0.5 | < 5
32 | C=CCNC(=O)Nc1ccc(CCc2nc(-c3ccc4c(c3)C(C)(C)CCC4(C)C)co2)cc1 [Example 40] | < 0.5 | < 5
33 | CCCNC(=O)Nc1ccc(CCc2nc(-c3ccc4c(c3)C(C)(C)CCC4(C)C)co2)cc1 [Example 41] | < 0.5 | < 5
34 | CC1(C)CCC(C)(C)c2cc(-c3nnc(CCc4ccc(NC(=O)C5CCC5)cc4)s3)ccc21 [Example 51] | < 0.5 | < 5
35 | C=CCNC(=O)Nc1ccc(CCc2nnc(-c3ccc4c(c3)C(C)(C)CCC4(C)C)s2)cc1 [Example 52] | < 0.5 | < 5
36 | CCCNC(=O)Nc1ccc(CCc2nnc(-c3ccc4c(c3)C(C)(C)CCC4(C)C)s2)cc1 [Example 53] | < 0.5 | < 5

Now from value to molecule:

Row | Ki (read-out: Ki < 0.5 μM) [µM] | Ki (read-out: Ki < 5 μM) [µM] | Compound
37 | < 0.5 | < 5 | C=CCNC(=O)Nc1ccc(CCOC(=O)c2ccc3c(c2)C(C)(C)CCC3(C)C)cc1 [Example 30]
38 |  | < 5 | O=C(OCCc1ccc(NC(=O)C2CCC2)cc1)c1ccc2c(c1)OCO2 [Example 34]
39 | < 0.5 | < 5 | Cc1cc2c(cc1C(=O)OCCc1ccc(NC(=O)C3CCC3)cc1)C(C)(C)CCC2 [Example 35]
40 | < 0.5 | < 5 | Cc1cc2c(cc1C(=O)OCCc1ccc(NC(=O)C3CCC3)cc1)CCCC2(C)C [Example 36]
41 | < 0.5 | < 5 | CC1(C)CC(C)(C)c2cc(C(=O)OCCc3ccc(NC(=O)C4CCC4)cc3)ccc21 [Example 37]
42 |  | < 5 | O=C(OCCc1ccc(NC(=O)C2CCC2)cc1)c1ccc2c(c1)C(=O)CC2 [Example 38]
43 | < 0.5 | < 5 | CC1(C)CCc2cc(C(=O)OCCc3ccc(NC(=O)C4CCC4)cc3)ccc2O1 [Example 42]
44 | < 0.5 | < 5 | Cc1cc2c(cc1C(=O)OCCc1ccc(NC(=O)C3CCC3)cc1)C(C)(C)CC(C)C2(C)C (stereo not shown) [Example 45]
45 | < 0.5 | < 5 | CC(C)(C)c1cc(-c2nnc(CCc3ccc(NC(=O)C4CCC4)cc3)s2)cc(C(C)(C)C)c1 [Example 46]
46 | < 0.5 | < 5 | C=CCNC(=O)Nc1ccc(CCc2nnc(-c3cc(C(C)(C)C)cc(C(C)(C)C)c3)s2)cc1 [Example 47]
47 | < 0.5 | < 5 | CCCNC(=O)Nc1ccc(CCc2nnc(-c3cc(C(C)(C)C)cc(C(C)(C)C)c3)s2)cc1 [Example 48, N-(4-{2-[5-(3,5-di-tert-butylphenyl)-1,3,4-thiadiazol-2-yl]ethyl}phenyl)-N′-propylurea]
48 | < 0.5 | < 5 | Cc1cc2c(cc1C(=O)OCCc1ccc(NC(=O)C3CCC3)cc1)C(C)(C)CCC2(C)C [Example 49]
49 | < 0.5 | < 5 | CC1(C)CCNc2ccc(C(=O)OCCc3ccc(NC(=O)C4CCC4)cc3)cc21 [Example 50]
50 | < 0.5 | < 5 | CC(=O)Nc1ccc(CCOC(=O)c2ccc3c(c2)C(C)(C)CCC3(C)C)cc1 [Example 54]
51 | < 0.5 | < 5 | CCC(=O)Nc1ccc(CCOC(=O)c2ccc3c(c2)C(C)(C)CCC3(C)C)cc1 [Example 55]
52 | < 0.5 | < 5 | CC(C)C(=O)Nc1ccc(CCOC(=O)c2ccc3c(c2)C(C)(C)CCC3(C)C)cc1 [Example 56]
